Laboratory results published in PubChem BioAssay (NCI).
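Assay format: 96-well plates, 48-hour exposure. TGI is the concentration that stops growth completely.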

test system: RXF-631 renal; assay: NCI anticancer screen, dose series, 48 h

| SMILES | TGI |
| --- | --- |
| COC(=O)C1=NC(=S)NC(c2ccccc2)C1c1nc2ccccc2s1 (stereo not drawn) | > 100 µM |
| C=CCCCCCCCCC(=O)NS(=O)(=O)c1ccccc1 | > 100 µM |

test system: SF-295 CNS; assay: NCI anticancer screen, dose series, 48 h

| SMILES | TGI |
| --- | --- |
| NC1=NN(c2ccccc2)C(=O)C1C(=O)CCC(=O)Nc1cccc(C(F)(F)F)c1 (stereo not drawn) | > 100 µM |
| CC1=C2C(=O)O[C@@H](c3ccoc3)[C@]2(C)CCC1 | > 100 µM |
| CC1=C(C)CC2(CCCCC2=O)S(=O)C1 (stereo not drawn) | > 100 µM |
| COC(=O)C1=NC(=S)NC(c2ccccc2)C1c1nc2ccccc2s1 (stereo not drawn) | > 100 µM |
| Cc1noc(C)c1CCCOC1COc2ccccc2OCCOCCOc2ccccc2OC1 | > 100 µM |
| Cc1cccc(NC(=O)C(=O)Cc2nc3ccccc3[nH]c2=O)c1C | > 100 µM |
| C=CCCCCCCCCC(=O)NS(=O)(=O)c1ccccc1 | > 100 µM |

test system: NCI-H460 lung; assay: NCI anticancer screen, dose series, 48 h

| SMILES | TGI |
| --- | --- |
| NC1=NN(c2ccccc2)C(=O)C1C(=O)CCC(=O)Nc1cccc(C(F)(F)F)c1 (stereo not drawn) | > 100 µM |
| CC1=C2C(=O)O[C@@H](c3ccoc3)[C@]2(C)CCC1 | > 100 µM |
| CC1=C(C)CC2(CCCCC2=O)S(=O)C1 (stereo not drawn) | > 100 µM |
| COC(=O)C1=NC(=S)NC(c2ccccc2)C1c1nc2ccccc2s1 (stereo not drawn) | > 100 µM |
| CCN(CC)C(=O)c1cc(OC(C)C)ccc1-c1c(C)cc(OC(C)C)c(OC)c1OC | > 100 µM |
| Cc1cccc(NC(=O)C(=O)Cc2nc3ccccc3[nH]c2=O)c1C | > 100 µM |
| C=CCCCCCCCCC(=O)NS(=O)(=O)c1ccccc1 | > 100 µM |

test system: DMS 114 small cell lung; assay: NCI anticancer screen, dose series, 48 h

| SMILES | TGI |
| --- | --- |
| NC1=NN(c2ccccc2)C(=O)C1C(=O)CCC(=O)Nc1cccc(C(F)(F)F)c1 (stereo not drawn) | > 100 µM |
| CC1=C2C(=O)O[C@@H](c3ccoc3)[C@]2(C)CCC1 | > 100 µM |
| CC1=C(C)CC2(CCCCC2=O)S(=O)C1 (stereo not drawn) | > 100 µM |
| COC(=O)C1=NC(=S)NC(c2ccccc2)C1c1nc2ccccc2s1 (stereo not drawn) | > 100 µM |
| Cc1noc(C)c1CCCOC1COc2ccccc2OCCOCCOc2ccccc2OC1 | > 100 µM |
| CCN(CC)C(=O)c1cc(OC(C)C)ccc1-c1c(C)cc(OC(C)C)c(OC)c1OC | > 100 µM |
| Cc1cccc(NC(=O)C(=O)Cc2nc3ccccc3[nH]c2=O)c1C | > 100 µM |
| C=CCCCCCCCCC(=O)NS(=O)(=O)c1ccccc1 | > 100 µM |

test system: NCI-H226 lung; assay: NCI anticancer screen, dose series, 48 h

| SMILES | TGI |
| --- | --- |
| NC1=NN(c2ccccc2)C(=O)C1C(=O)CCC(=O)Nc1cccc(C(F)(F)F)c1 (stereo not drawn) | > 100 µM |
| CC1=C2C(=O)O[C@@H](c3ccoc3)[C@]2(C)CCC1 | > 100 µM |
| CC1=C(C)CC2(CCCCC2=O)S(=O)C1 (stereo not drawn) | > 100 µM |
| COC(=O)C1=NC(=S)NC(c2ccccc2)C1c1nc2ccccc2s1 (stereo not drawn) | > 100 µM |
| Cc1noc(C)c1CCCOC1COc2ccccc2OCCOCCOc2ccccc2OC1 | > 100 µM |
| CCN(CC)C(=O)c1cc(OC(C)C)ccc1-c1c(C)cc(OC(C)C)c(OC)c1OC | > 100 µM |
| Cc1cccc(NC(=O)C(=O)Cc2nc3ccccc3[nH]c2=O)c1C | > 100 µM |
| C=CCCCCCCCCC(=O)NS(=O)(=O)c1ccccc1 | > 100 µM |

test system: HCC-2998 colon; assay: NCI anticancer screen, dose series, 48 h

| SMILES | TGI |
| --- | --- |
| NC1=NN(c2ccccc2)C(=O)C1C(=O)CCC(=O)Nc1cccc(C(F)(F)F)c1 (stereo not drawn) | > 100 µM |
| CC1=C2C(=O)O[C@@H](c3ccoc3)[C@]2(C)CCC1 | > 100 µM |
| CC1=C(C)CC2(CCCCC2=O)S(=O)C1 (stereo not drawn) | > 100 µM |
| COC(=O)C1=NC(=S)NC(c2ccccc2)C1c1nc2ccccc2s1 (stereo not drawn) | > 100 µM |
| Cc1noc(C)c1CCCOC1COc2ccccc2OCCOCCOc2ccccc2OC1 | > 100 µM |
| CCN(CC)C(=O)c1cc(OC(C)C)ccc1-c1c(C)cc(OC(C)C)c(OC)c1OC | > 100 µM |
| Cc1cccc(NC(=O)C(=O)Cc2nc3ccccc3[nH]c2=O)c1C | > 100 µM |
| C=CCCCCCCCCC(=O)NS(=O)(=O)c1ccccc1 | > 100 µM |

test system: A498 renal; assay: NCI anticancer screen, dose series, 48 h

| SMILES | TGI |
| --- | --- |
| CC1=C(C)CC2(CCCCC2=O)S(=O)C1 (stereo not drawn) | > 100 µM |
| COC(=O)C1=NC(=S)NC(c2ccccc2)C1c1nc2ccccc2s1 (stereo not drawn) | > 100 µM |
| Cc1noc(C)c1CCCOC1COc2ccccc2OCCOCCOc2ccccc2OC1 | > 100 µM |
| Cc1cccc(NC(=O)C(=O)Cc2nc3ccccc3[nH]c2=O)c1C | > 100 µM |
| C=CCCCCCCCCC(=O)NS(=O)(=O)c1ccccc1 | > 100 µM |

test system: SK-OV-3 ovarian; assay: NCI anticancer screen, dose series, 48 h

| SMILES | TGI |
| --- | --- |
| NC1=NN(c2ccccc2)C(=O)C1C(=O)CCC(=O)Nc1cccc(C(F)(F)F)c1 (stereo not drawn) | > 100 µM |
| CC1=C2C(=O)O[C@@H](c3ccoc3)[C@]2(C)CCC1 | > 100 µM |
| CC1=C(C)CC2(CCCCC2=O)S(=O)C1 (stereo not drawn) | > 100 µM |
| COC(=O)C1=NC(=S)NC(c2ccccc2)C1c1nc2ccccc2s1 (stereo not drawn) | > 100 µM |
| Cc1noc(C)c1CCCOC1COc2ccccc2OCCOCCOc2ccccc2OC1 | > 100 µM |
| CCN(CC)C(=O)c1cc(OC(C)C)ccc1-c1c(C)cc(OC(C)C)c(OC)c1OC | > 100 µM |
| Cc1cccc(NC(=O)C(=O)Cc2nc3ccccc3[nH]c2=O)c1C | > 100 µM |
| C=CCCCCCCCCC(=O)NS(=O)(=O)c1ccccc1 | > 100 µM |
